Assay [1] is described as follows: Sensory testing with salt reduction, mushroom-based cream soup, panel of four expert tasters. The class given is in vivo. The following applies: 20% reduced salt (0.684%) with 1 ppm compound, scale from 1 to 10. Here is the method:
Sensory testing was carried out using a panel of four (4) expert tasters, who rated the taste of the a mushroom-based cream soup with: (a) a normal amount of salt (0.855%); (b) 20% reduced salt (0.684%); and (c) 20% reduced salt (0.684%) with 1 ppm [6]-gingerdiol-diacetate. The panelists rated the soups for salt intensity, umami intensity, bitter intensity, and overall liking on a scale from 1 to 10.

A short description of assay [2]: Sensory testing with salt reduction, meat flavoring formulation, panel of three expert tasters. The class given is in vivo. The following applies: 20% reduced salt (0.646%) with 1 ppm compound, scale from 1 to 10. The method, then:
Further sensory testing was carried out using a panel of three (3) expert tasters, who rated the taste of a meat flavoring formulation with: (a) a normal amount of salt ([…]); (b) 20% reduced salt (0.646%); and (c) 20% reduced salt (0.646%) with 1 ppm [6]-gingerdiol-diacetate. The panelists rated the soups for salt intensity, umami intensity, bitter intensity, and overall liking on a scale from 1 to 10.

Regarding `CCCCCC(CC(CCc1ccc(O)c(OC)c1)OC(C)=O)OC(C)=O` (centres unmarked) [Gingerdiol, [6]-gingerdiol-diacetate], in assay [1], the “Bitter (bitter intensity)” value is recorded as 0.0, the “Overall Liking” value is on record as 2.3, the “Saltiness (salt intensity)” value came to 3.3 and the “Umami (umami intensity)” value is on record as 3.0. Further, in assay [2], the “Bitter (bitter intensity)” value amounted to 2.3, the “Overall Liking” value is reported as 5.0, the “Saltiness (salt intensity)” value is 5.3 and the “Umami (umami intensity)” value is recorded as 4.0.

Source of the values: patent publication US20240099343A1, “USE OF GINGERDIOL COMPOUNDS TO ENHANCE FLAVOR” (Firmenich SA, priority 2021, published 2024).
